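Interpolation was linear, between the two tested concentrations surrounding the appropriate level; five concentrations were tested over 48 hours in 96-well plates. Abbreviation: GI50, concentration required for 50% inhibition of growth. TGI denotes the concentration required for complete inhibition of growth.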
Legend:
Test in all cases: NCI anticancer screen, dose series, 48 h
[1] = tested on: SN12C renal
[2] = tested on: SF-539 CNS
[3] = tested on: COLO 205 colon
[4] = tested on: CAKI-1 renal
[5] = tested on: SF-295 CNS
[6] = tested on: SK-OV-3 ovarian
[7] = tested on: HS 578T breast
[8] = tested on: TK-10 renal
[9] = tested on: DU-145 prostate
[10] = tested on: SNB-19 CNS
[11] = tested on: NCI-H226 lung
[12] = tested on: BT-549 breast
[13] = tested on: MOLT-4 leukemia
[14] = tested on: HL-60(TB) leukemia
[15] = tested on: HOP-92 NSCLC
[16] = tested on: T-47D breast
[17] = tested on: NCI-H23 lung
[18] = tested on: SF-268 CNS
[19] = tested on: OVCAR-8 ovarian
[20] = tested on: KM12 colon
[21] = tested on: A549 NSCLC
[22] = tested on: MCF7 breast
[23] = tested on: RXF 393 renal
[24] = tested on: CCRF-CEM leukemia
[25] = tested on: HCC-2998 colon
[26] = tested on: SR leukemia
[27] = tested on: HCT-116 colon
[28] = tested on: UACC-62 melanoma
[29] = tested on: ACHN renal
[30] = tested on: 786-0 renal
[31] = tested on: EKVX NSCLC
[32] = tested on: PC-3 prostate
[33] = tested on: K-562 leukemia
[34] = tested on: M14 melanoma
[35] = tested on: IGROV1 ovarian
[36] = tested on: A498 renal
[37] = tested on: HT29 colon
[38] = tested on: MALME-3M melanoma
[39] = tested on: RPMI-8226 leukemia
[40] = tested on: MDA-MB-468 breast
[41] = tested on: HOP-62 NSCLC
[42] = tested on: NCI/ADR-RES ovarian
[43] = tested on: UACC-257 melanoma
[44] = tested on: OVCAR-5 ovarian
[45] = tested on: UO-31 renal
[46] = tested on: NCI-H522 lung
[47] = tested on: MDA-MB-435
[48] = tested on: LOX IMVI melanoma
[49] = tested on: SW-620 colon
[50] = tested on: NCI-H460 lung
[51] = tested on: OVCAR-3 ovarian
[52] = tested on: SK-MEL-28 melanoma
[53] = tested on: U251 CNS
[54] = tested on: SNB-75 CNS
[55] = tested on: SK-MEL-2 melanoma
[56] = tested on: SK-MEL-5 melanoma
[57] = tested on: OVCAR-4 ovarian
[58] = tested on: MDA-MB-231 breast
[59] = tested on: HCT-15 colon

Question: How did the GI50 [1] turn out when `Cc1cc2nc3c4ccccc4n(CCCN(C)C)c3nc2cc1C` was run?
Answer: The GI50 was 2.33 µM.

Question: And the TGI [1]?
Answer: Its TGI is 10.1 µM.

Question: What about the GI50 [2] of the same compound?
Answer: The GI50 was 2.16 µM.

Question: What about the TGI [2] of the same compound?
Answer: Its TGI is 5.51 µM.

Question: What about the GI50 [3] of the same compound?
Answer: Its GI50 is 1.32 µM.

Question: What about the TGI [3] of the same compound?
Answer: The TGI was 2.85 µM.

Question: What about the GI50 [4] of the same compound?
Answer: The GI50 was 2.08 µM.

Question: And the TGI [4]?
Answer: The TGI was 7.36 µM.

Question: And the GI50 [5]?
Answer: Its GI50 is 2.29 µM.

Question: And the TGI [5]?
Answer: The TGI was 8.79 µM.

Question: What about the GI50 [6] of the same compound?
Answer: Its GI50 is 2.05 µM.

Question: What about the TGI [6] of the same compound?
Answer: Its TGI is 5.93 µM.

Question: What about the GI50 [7] of the same compound?
Answer: Its GI50 is 2.95 µM.

Question: What about the TGI [7] of the same compound?
Answer: Its TGI is 14.8 µM.

Question: What about the GI50 [8] of the same compound?
Answer: Its GI50 is 2.58 µM.

Question: And the TGI [8]?
Answer: Its TGI is 8.64 µM.

Question: What about the GI50 [9] of the same compound?
Answer: The GI50 was 3.16 µM.

Question: And the TGI [9]?
Answer: The TGI was 9.57 µM.

Question: What about the GI50 [10] of the same compound?
Answer: Its GI50 is 2.99 µM.

Question: What about the TGI [10] of the same compound?
Answer: Its TGI is 11.5 µM.

Question: And the GI50 [11]?
Answer: The GI50 was 2.38 µM.

Question: What about the TGI [11] of the same compound?
Answer: The TGI was 9.14 µM.

Question: And the GI50 [12]?
Answer: Its GI50 is 2.51 µM.

Question: What about the TGI [12] of the same compound?
Answer: The TGI was 9.68 µM.

Question: And the GI50 [13]?
Answer: Its GI50 is 1.94 µM.

Question: What about the TGI [13] of the same compound?
Answer: Its TGI is 6.41 µM.

Question: And the GI50 [14]?
Answer: Its GI50 is 2.19 µM.

Question: What about the TGI [14] of the same compound?
Answer: The TGI was 5.43 µM.

Question: What about the GI50 [15] of the same compound?
Answer: The GI50 was 1.89 µM.

Question: And the TGI [15]?
Answer: Its TGI is 9.4 µM.

Question: And the GI50 [16]?
Answer: Its GI50 is 2.72 µM.

Question: What about the TGI [16] of the same compound?
Answer: Its TGI is 9.11 µM.

Question: And the GI50 [17]?
Answer: Its GI50 is 1.71 µM.

Question: What about the TGI [17] of the same compound?
Answer: The TGI was 4.1 µM.

Question: What about the GI50 [18] of the same compound?
Answer: Its GI50 is 2.95 µM.

Question: What about the TGI [18] of the same compound?
Answer: Its TGI is 10.1 µM.

Question: What about the GI50 [19] of the same compound?
Answer: The GI50 was 1.32 µM.

Question: And the TGI [19]?
Answer: The TGI was 4.08 µM.

Question: What about the GI50 [20] of the same compound?
Answer: Its GI50 is 3.31 µM.

Question: And the TGI [20]?
Answer: Its TGI is 11.3 µM.

Question: And the GI50 [21]?
Answer: Its GI50 is 1.5 µM.

Question: And the TGI [21]?
Answer: Its TGI is 4.04 µM.

Question: What about the GI50 [22] of the same compound?
Answer: Its GI50 is 1.95 µM.

Question: And the TGI [22]?
Answer: The TGI was 4.88 µM.

Question: And the GI50 [23]?
Answer: The GI50 was 2.28 µM.

Question: What about the TGI [23] of the same compound?
Answer: Its TGI is 7.09 µM.

Question: And the GI50 [24]?
Answer: The GI50 was 3.05 µM.

Question: What about the TGI [24] of the same compound?
Answer: Its TGI is 11.7 µM.

Question: What about the GI50 [25] of the same compound?
Answer: The GI50 was 1.74 µM.

Question: And the TGI [25]?
Answer: Its TGI is 3.83 µM.

Question: And the GI50 [26]?
Answer: The GI50 was 2.03 µM.

Question: And the TGI [26]?
Answer: The TGI was 6.94 µM.

Question: What about the GI50 [27] of the same compound?
Answer: Its GI50 is 1.77 µM.

Question: And the TGI [27]?
Answer: Its TGI is 9 µM.

Question: And the GI50 [28]?
Answer: Its GI50 is 1.89 µM.

Question: And the TGI [28]?
Answer: The TGI was 4.97 µM.

Question: What about the GI50 [29] of the same compound?
Answer: Its GI50 is 1.73 µM.

Question: What about the TGI [29] of the same compound?
Answer: The TGI was 4.91 µM.

Question: What about the GI50 [30] of the same compound?
Answer: Its GI50 is 3 µM.

Question: And the TGI [30]?
Answer: Its TGI is 11.8 µM.

Question: What about the GI50 [31] of the same compound?
Answer: Its GI50 is 3.01 µM.

Question: And the TGI [31]?
Answer: Its TGI is 10.1 µM.

Question: And the GI50 [32]?
Answer: Its GI50 is 2.71 µM.

Question: And the TGI [32]?
Answer: Its TGI is 17.3 µM.

Question: What about the GI50 [33] of the same compound?
Answer: Its GI50 is 2.52 µM.

Question: And the TGI [33]?
Answer: Its TGI is 10.2 µM.

Question: And the GI50 [34]?
Answer: Its GI50 is 1.69 µM.

Question: And the TGI [34]?
Answer: The TGI was 3.5 µM.

Question: And the GI50 [35]?
Answer: The GI50 was 1.76 µM.

Question: What about the TGI [35] of the same compound?
Answer: Its TGI is 4.11 µM.

Question: What about the GI50 [36] of the same compound?
Answer: The GI50 was 3.97 µM.

Question: What about the TGI [36] of the same compound?
Answer: Its TGI is 13 µM.

Question: And the GI50 [37]?
Answer: The GI50 was 1.45 µM.

Question: What about the TGI [37] of the same compound?
Answer: The TGI was 4.53 µM.

Question: What about the GI50 [38] of the same compound?
Answer: The GI50 was 1.82 µM.

Question: And the TGI [38]?
Answer: The TGI was 3.91 µM.

Question: What about the GI50 [39] of the same compound?
Answer: Its GI50 is 2.65 µM.

Question: What about the TGI [39] of the same compound?
Answer: Its TGI is 13.1 µM.

Question: What about the GI50 [40] of the same compound?
Answer: The GI50 was 2.46 µM.

Question: And the TGI [40]?
Answer: The TGI was 7.54 µM.

Question: What about the GI50 [41] of the same compound?
Answer: Its GI50 is 1.57 µM.

Question: What about the TGI [41] of the same compound?
Answer: Its TGI is 5 µM.

Question: And the GI50 [42]?
Answer: Its GI50 is 1.41 µM.

Question: And the TGI [42]?
Answer: Its TGI is 3.57 µM.

Question: And the GI50 [43]?
Answer: The GI50 was 1.84 µM.

Question: And the TGI [43]?
Answer: Its TGI is 4.41 µM.

Question: What about the GI50 [44] of the same compound?
Answer: The GI50 was 2.34 µM.

Question: What about the TGI [44] of the same compound?
Answer: Its TGI is 6.87 µM.

Question: And the GI50 [45]?
Answer: Its GI50 is 0.6 µM.

Question: What about the TGI [45] of the same compound?
Answer: Its TGI is 3.27 µM.

Question: What about the GI50 [46] of the same compound?
Answer: The GI50 was 1.44 µM.

Question: What about the TGI [46] of the same compound?
Answer: The TGI was 3.45 µM.

Question: What about the GI50 [47] of the same compound?
Answer: The GI50 was 2.09 µM.

Question: And the TGI [47]?
Answer: The TGI was 4.52 µM.

Question: And the GI50 [48]?
Answer: The GI50 was 1.35 µM.

Question: What about the TGI [48] of the same compound?
Answer: The TGI was 2.87 µM.

Question: And the GI50 [49]?
Answer: The GI50 was 1.72 µM.

Question: And the TGI [49]?
Answer: The TGI was 5.45 µM.

Question: What about the GI50 [50] of the same compound?
Answer: Its GI50 is 2.31 µM.

Question: And the TGI [50]?
Answer: The TGI was 6.76 µM.

Question: What about the GI50 [51] of the same compound?
Answer: Its GI50 is 2.46 µM.

Question: What about the TGI [51] of the same compound?
Answer: The TGI was 6 µM.

Question: And the GI50 [52]?
Answer: The GI50 was 3.06 µM.

Question: What about the TGI [52] of the same compound?
Answer: The TGI was 9.72 µM.

Question: What about the GI50 [53] of the same compound?
Answer: The GI50 was 2 µM.

Question: What about the TGI [53] of the same compound?
Answer: Its TGI is 6.42 µM.

Question: What about the GI50 [54] of the same compound?
Answer: The GI50 was 1.85 µM.

Question: What about the TGI [54] of the same compound?
Answer: Its TGI is 10.2 µM.

Question: And the GI50 [55]?
Answer: Its GI50 is 1.68 µM.

Question: What about the TGI [55] of the same compound?
Answer: The TGI was 3.21 µM.

Question: What about the GI50 [56] of the same compound?
Answer: Its GI50 is 2.21 µM.

Question: And the TGI [56]?
Answer: The TGI was 5.12 µM.

Question: What about the GI50 [57] of the same compound?
Answer: Its GI50 is 2.65 µM.

Question: And the TGI [57]?
Answer: The TGI was 8.11 µM.

Question: And the GI50 [58]?
Answer: Its GI50 is 1.94 µM.

Question: And the TGI [58]?
Answer: Its TGI is 4.79 µM.

Question: What about the GI50 [59] of the same compound?
Answer: Its GI50 is 1.8 µM.

Question: What about the TGI [59] of the same compound?
Answer: Its TGI is 3.56 µM.
